Assay results taken from patent US7317038B2, “Nerve regeneration promoters containing semaphorin inhibitor as the active ingredient” (Dainippon Sumitomo Pharma Co., Ltd., priority 2000, dated 2008).

How the values were obtained:
Solubility = format: physicochemical
[1] = molecular target: T1, mouse semaphorin 3A (Sema3A) (Mus musculus, UniProt O08665); experiment: Suppression of growth cone collapse activity of Sema3A (chick embryo dorsal root ganglions); format: cell-based; details: E7 chick embryo dorsal root ganglions; 2 units/ml Sema3A added 1 hour after compound; concentration where collapse rate = (A+B)/2; read-out: IC50 of inhibition of the growth cone collapse activity of Sema3A (converted)
T1 sequence (O08665 21-772): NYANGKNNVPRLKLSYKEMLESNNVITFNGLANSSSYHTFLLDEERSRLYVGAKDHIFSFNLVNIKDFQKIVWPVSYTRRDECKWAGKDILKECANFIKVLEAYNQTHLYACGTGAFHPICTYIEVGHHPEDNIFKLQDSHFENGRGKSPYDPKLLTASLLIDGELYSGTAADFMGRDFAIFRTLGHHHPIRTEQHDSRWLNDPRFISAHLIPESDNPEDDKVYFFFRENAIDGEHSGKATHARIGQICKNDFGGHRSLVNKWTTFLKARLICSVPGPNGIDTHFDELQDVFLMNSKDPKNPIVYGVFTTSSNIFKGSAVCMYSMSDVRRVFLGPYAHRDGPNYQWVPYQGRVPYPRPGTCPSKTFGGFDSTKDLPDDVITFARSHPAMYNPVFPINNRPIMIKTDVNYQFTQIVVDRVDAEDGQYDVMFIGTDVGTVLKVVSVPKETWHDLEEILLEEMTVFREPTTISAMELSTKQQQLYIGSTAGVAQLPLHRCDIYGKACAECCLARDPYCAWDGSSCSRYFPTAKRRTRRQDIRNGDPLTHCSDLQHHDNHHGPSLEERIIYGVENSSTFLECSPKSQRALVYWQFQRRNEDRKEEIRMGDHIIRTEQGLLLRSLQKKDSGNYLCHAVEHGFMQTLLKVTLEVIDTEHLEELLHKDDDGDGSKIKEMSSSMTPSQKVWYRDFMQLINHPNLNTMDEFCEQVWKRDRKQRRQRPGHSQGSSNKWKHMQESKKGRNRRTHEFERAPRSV
Method: A 96-well plate (Sumitomo Bakelite Co., ltd. ) pre-coated with polylysine was further coated with laminine (20 μg/ml of laminine, for 1 hour at room temperature). Each well was added with 100 μl of medium (F12 medium containing 10% bovine fetal serum, 20 ng/ml of NGF, 100 units/ml of penicillin and 100 μg/ml of streptomycin) which media were then inoculated with dorsal root nerve ganglions excised from E7 (Embryonic day 7) chick embryo and were cultured for 16 to 20 hours under 5% CO2 and at 37° C. Subsequently, the object compounds were added to media at various concentrations and 2 units/ml of mouse semaphorin 3A (Sema3A) was added after cultivating for 1 hour. The cultures were further incubated for another 1 hour. Glutaraldehyde was quickly added therein after said 1 hour to make the final concentration 1%. The cultures were then left for 15 minutes at room temperature so that the tissue sections were fixed, and collapse rates of the growth cones were microscopically observed. A well with no addition of Sema3A was made the control.
The longitudinal and lateral axes in the figures represent the collapse rate of growth cones and the concentration of compounds, respectively. ●▪▴ show the results when Sema3A was added after the addition of the compounds and ◯[…]Δ show those when Sema3A was not added. Further, IC50 (μg/ml) of the inhibitors were determined by the method comprising: calculating the collapse rate of growth cone (A) % of the negative controls (neither compounds nor Sema3a was added); subsequently calculate the collapse rate of growth cone (B) % of the positive controls (compounds were not added but Sema3a was added); and the concentration was chosen for each compound from the chart where the collapse rate of growth cone met (A+B)/2(%), which was made IC50 level. The followings are the results.

Sema3A = molecular target: T2, Sema3A (Mus musculus, UniProt O08665); experiment: Collagen gel co-culture: suppression of neurite outgrowth inhibitory action of Sema3A; format: cell-based; set-up: key to suppression of neurite outgrowth inhibitory activity of Sema3A, score / inhibition of neurite outgrowth-inhibitory action of Sema3A, score: neurites outgrew in a complete concentric circular shape just like for the control groups where Sema3A-non-expressing COS7 cells were used, it was scored +++ (a strong inhibitory effect for Sema3A); outgrowth was found almost in a concentric circular shape accompanied with a little suppression of the outgrowth toward the direction of Sema3A-expressing COS cells, it was scored ++; outgrowth toward the direction of Sema3A-expressing COS cells is fairly suppressed to present a crescent shape, it was scored +; outgrowth toward the direction of Sema3A-expressing COS cells was not found at all (no inhibitory effect for Sema3A), it was scored −; details: Example 16
T2 construct: expressed in transfected cells; host or cells: COS7
T2 sequence (O08665 21-772): T1 sequence (O08665 21-772)
Method: Whether the object compounds (SPF-3059-1, M162, A721) have persistent inhibitory action to Sema3A was analyzed by the collagen gel co-culture method (Neuroprotocols 4, 116, 1994) using Sema3A-expressing COS7 cell clumps and 7- or 8-day-old chick embryo dorsal root ganglions. The Sema3A-expressing COS7 cell clumps were generated as follows. 1 μg of Sema3A-expression plasmid was introduced into COS7 cells (100000 cells/35 mm culture plate), which were cultured overnight, with the FuGENE6 transfection reagent (Roche). 2.5 hours after the starting of the transfection, the COS7 cells were collected by trypsinization and centrifugation, and re-suspended in a medium of 200 μl. 20 μl of the cell suspension was placed on the lid of the culture plate (inside) and the lid was turned over, and then the suspension was cultivated for 20 hours (hanging drop culture) (Cell 78, 425, 1994). When the culture was over, aggregated COS7 cells (clump) were collected and trimmed to a diameter of 0.5 mm. The Sema3A-expressing COS7 cell clump and the above-mentioned dorsal root ganglions were placed in parallel at a distance of 0.5 to 1 mm in a 0.2% collagen gel which was then cultivated in a medium containing the aforementioned compounds at various concentrations for 2 days at 37° C. under 5% CO2. Glutaraldehyde was quickly added therein to make the final concentration 1%. The cultures were then left for 1 hour at room temperature so that the tissues were fixed, and the neurite outgrowth was microscopically observed. The results are found in FIG. 4.
When a medium not containing a subject compound was used, neurites were unable to grow towards the COS7 cell clump with the high concentration of Sema3A and grew only to the opposite direction.
In a similar way as in Example 4, suppression of the neurite outgrowth inhibitory activity was analyzed for the compounds, SPF-3059-1, SPF-3059-2 and SPF-3059-5. When the neurites outgrew in a complete concentric circular shape just like for the control groups where Sema3A-non-expressing COS7 cells were used, it was scored +++ (a strong inhibitory effect for Sema3A). When the outgrowth was found almost in a concentric circular shape accompanied with a little suppression of the outgrowth toward the direction of Sema3A-expressing COS cells, it was scored ++. […] When the outgrowth toward the direction of Sema3A-expressing COS cells was not found at all (no inhibitory effect for Sema3A), it was scored −.

COS7 cells = experiment: Effect on cell proliferation (MTT); format: cell-based; details: Chlorocebus aethiops, COS-7, 48 h, two days, read-out: IC50, inhibitory rate for cell proliferation
Method: COS7 cells were seeded onto a 96-well plate (medium 100 μl/well) at 10000 cells per well. At the same time, SPF-3059-1 of various concentrations was added and the cells were cultivated for two days in the presence of 5% CO2 at 37° C. Each well was then added with 10 μl of MTT solution at 5 mg/ml and cultured for another one hour. Subsequently, the culture supernatant was removed and formazan (an MTT derivative produced in viable cells) accumulated in the cells was dissolved by the addition of 50 μl DMSO and then the absorbance at 570 nm was measured to determine the proliferation of COS7 cells. […] The longitudinal and lateral axes in the figure show cell proliferation and the SPF-3059-1 concentration, respectively. Besides, the standard deviation (n=4) was added to each column.
The same effect on cell proliferation as in Example 9 was examined for the compounds, SPF-3059-1, SPF-3059-2 and SPF-3059-5. The wells with these compounds were served as samples, the wells with PBS were served as control, and the wells for which the experiment was carried out without adding the cells was served as blank. IC50 (μg/ml), the inhibitory rate for cell proliferation, was determined, which is calculated by the equation shown below. The inhibitory rate for cell proliferation (%)=(1−(absorbance of a sample well−absorbance of the blank well)/(absorbance of the control well−absorbance of the blank well))×100

SMILES | Solubility (Solubility; methanol, DMSO) | Solubility (Solubility; water, hexane) | IC50 [1] | inhibition of neurite outgrowth-inhibitory action of Sema3A, score (Sema3A; 2 μg/ml compound) | IC50 (COS7 cells) | inhibition of neurite outgrowth-inhibitory action of Sema3A, score (Sema3A; 6 μg/ml compound) | inhibition of neurite outgrowth-inhibitory action of Sema3A, score (Sema3A; 20 μg/ml compound)
CC(=O)c1c(C)c(C(=O)C2COc3cc(O)c(O)c(C(=O)O)c3C2=O)cc2c(=O)c3cc(O)c(O)cc3oc12 (stereo not drawn) [SPF-3059-3] | Soluble | Insoluble | 374 nM | +++ | > 100 µg/mL |  | 
CC(=O)c1cc2c(=O)c3c(C(=O)O)cc(O)cc3oc2c(C(C)=O)c1-c1coc2cc(O)c(O)c(C(=O)O)c2c1=O [SPF-3059-4] | Soluble | Insoluble | 3570 nM | − | > 100 µg/mL | + | ++
COCc1c(-c2cc3c(=O)c4c(C(=O)O)c(O)c(O)cc4oc3c(C(C)=O)c2C)oc2cc(O)c(O)c(C(=O)O)c2c1=O [SPF-3059-6] | Soluble | Insoluble | 169 nM | ++ | > 100 µg/mL | ++ | +++
CC(=O)c1c(C)c(C(=O)C2COc3cc(O)c(O)c(C(=O)O)c3C2=O)cc2c(=O)c3c(C(=O)O)cc(O)cc3oc12 (stereo not drawn) [SPF-3059-7] | Soluble | Insoluble | 1780 nM | + | > 100 µg/mL | + | ++
CC(=O)c1cc2c(=O)c3c(C(=O)O)c(O)c(O)cc3oc2c(C(C)=O)c1-c1coc2cc(O)cc(C(=O)O)c2c1=O [SPF-3059-12] | Soluble | Insoluble | 3570 nM | + | > 100 µg/mL | + | ++
